{
  "source": "paper PMC3688528",
  "about": "“Location of the CD8 T Cell Epitope within the Antigenic Precursor Determines Immunogenicity and Protection against the Toxoplasma gondii Parasite” (PLoS Pathogens, 2013)",
  "key": {"L^d MHC I molecule": {"target": "T1, L^d MHC I molecule (Mus musculus, UniProt P01897)", "T1 construct": "expressed in transfected cells; host or cells: RMA-S.L^d cells (TAP-deficient), gift from T. Hansen", "T1 sequence (P01897 25-362)": "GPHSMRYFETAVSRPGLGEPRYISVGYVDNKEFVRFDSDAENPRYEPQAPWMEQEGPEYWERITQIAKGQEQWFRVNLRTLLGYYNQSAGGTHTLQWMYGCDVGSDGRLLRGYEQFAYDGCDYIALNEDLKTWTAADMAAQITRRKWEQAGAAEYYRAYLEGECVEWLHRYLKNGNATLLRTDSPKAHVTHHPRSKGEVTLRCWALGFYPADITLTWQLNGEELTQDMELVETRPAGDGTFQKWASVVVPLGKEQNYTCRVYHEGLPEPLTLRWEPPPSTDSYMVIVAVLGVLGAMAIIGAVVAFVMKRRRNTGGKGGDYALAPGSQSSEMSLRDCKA", "T1 sequence (P01887 21-119 partner)": "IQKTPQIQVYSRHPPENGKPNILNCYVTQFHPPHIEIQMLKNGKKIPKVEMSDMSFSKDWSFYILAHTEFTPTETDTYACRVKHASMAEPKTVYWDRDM", "assay": "MHC I stabilization assay on TAP-deficient RMA-S.L^d cells", "format": "binding", "conditions": "flow cytometry MFI", "description": "We took advantage of the genetic diversity among three common T. gondii strains (type I, II and III). While the GRA4-derived SM9 and ROP7-derived IF9 peptides are conserved (data not shown and ToxoDB.org), the GRA6-derived HF10 peptide is polymorphic between type II and type I/III strains. Within the last 10 residues of GRA6, four non-synonymous single-nucleotide polymorphisms differentiate the type II sequence (HF10: HPGSVNEFDF) from the type I/III sequence (HY10: HPERVNVFDY) (Fig. 1A and Fig. S1 in Text S1). We noted that instead of a phenylalanine (F), the C-terminal residue in GRA6III is a tyrosine (Y), a residue not expected to be an appropriate anchor residue for L^d binding. To evaluate the ability of HF10 and HY10 to bind to L^d, we used an MHC I stabilization assay. TAP-deficient RMA-S cells display empty, unstable MHC I molecules and addition of exogenous peptides that can bind to MHC I can stabilize their expression on the cell surface, as read out by flow cytometry.\nRMA-S.L^d cells were a gift from T. Hansen (St-Louis, MO, USA). RMA-S.L^d cells were incubated at 37°C, 5% CO2 for 8 h to saturate the culture medium with CO2. The flask was sealed with parafilm and incubated at RT overnight. The next day, cells were washed with PBS and plated at 3×10^5 cells/well in a 96-W plate. Peptide was added to the cells in serial dilutions. The plate was incubated for 1 h at RT and 3 h at 37°C. Cells were stained with the 30-5-7 antibody (specific for conformed, peptide-bound L^d) and a phycoerythrine (PE)-coupled goat anti-mouse secondary antibody and analyzed by flow cytometry."}, "[1]": {"test_system": "T. gondii-specific CD8 T cells of infected B10.D2 mice", "assay": "Ex vivo staining of peptide-specific CD8 T cells with peptide-loaded L^d DimerX", "format": "cell-based, mouse", "conditions": "B10.D2 mice 4 weeks post-infection; HF10 value in CEP+GRA6II-infected mice; mean +/- s.d.; 3 independent experiments pooled; SD", "description": "(§1) Mice were sacrificed 3 to 4 weeks after infection. Spleens were dissociated into single-cell suspensions in complete RPMI (Invitrogen) supplemented with 10% (vol/vol) FCS (Hyclone). Samples were depleted of erythrocytes with ACK lysis buffer (100 µM EDTA, 160 mM NH4Cl and 10 mM NaHCO3). Leukocytes from the brain were prepared as in [17]. In brief, brains were minced and digested for 1 h at 37°C with 1 mg/ml collagenase (Sigma) and 100 µg/ml DNAseI (Roche) in complete RPMI. Brain suspensions were filtered through 70-µm cell strainers and centrifuged for 10 min at 200 g. Cells were resuspended in 60% (vol/vol) Percoll (GE Healthcare), overlaid on 30% (vol/vol) Percoll and centrifuged 20 min at 1,000 g. Infiltrating mononuclear cells were collected from the gradient interface and the remaining erythrocytes were lyzed with ACK lysis buffer.\n(§2) For other stainings, surfaces were labeled according to standard procedures with flow cytometry buffer (3% (vol/vol) FCS and 1 mM EDTA in PBS). Intracellular IFN-γ was detected with the Cytofix/Cytoperm kit (BD Pharmingen). DimerX H-2L^d:Ig (fusion protein of H-2L^d and immunoglobulin; BD Biosciences) was used according to the manufacturer's instructions and as described in [17]. All flow cytometry data were acquired on an XL Analyzer (Coulter) or a LSRII (Becton Dickinson) and were analyzed with FlowJo software (Tree Star)."}, "[2]": {"test_system": "naïve T. gondii-specific CD8α+ T cells in naive B10.D2 mice", "assay": "Naïve T cell enumeration by tetramer-based enrichment and flow cytometry", "design": "species or system mouse", "description": "We next assessed whether abundance of peptide-specific T cells in the repertoire of naïve mice may control immunodominance. We employed a tetramer-based enrichment procedure, [24] to enumerate naïve T cells isolated from spleen and lymph nodes of uninfected mice and specific for each of the 3 epitopes. Numbers of T cell precursors were analyzed by flow cytometry after gating on a population of live dump^− (dump = B220, F4/80, MHC II) CD3^+ CD8α^+ cells (Fig. S4 in Text S1). […] Thus the immunodominance of HF10 cannot be explained by a high starting precursor frequency of specific T cells.\nSpleen and major lymph nodes from individual naïve B10.D2 mice were harvested. Single cell suspension was stained with PE-labeled (Prozyme) SM9:L^d, IF9:L^d or HF10:L^d tetramers (NIH tetramer facility). Tetramer enrichment was performed on each sample with anti-PE magnetic beads (Miltenyi Biotec) and each sample was stained with antibodies (BD Biosciences) for flow cytometry analysis. Total numbers of CD8α^+tetramer^+ T cells per mouse were determined as before, [24]."}, "[3]": {"test_system": "CD8 T cells from spleens of T. gondii-infected B10.D2 mice", "assay": "Ex vivo IFN-γ intracellular staining of splenocytes restimulated in vitro with peptide", "format": "cell-based", "conditions": "splenocytes of B10.D2 mice 3 weeks post-infection with CEP+GRA6II; one representative mouse out of 3", "description": "as §1, §2"}, "type II parasite": {"test_system": "type II parasite", "conditions": "H2^d mice immunized with HF10-loaded bone marrow-derived dendritic cells; cited from earlier work"}, "[4]": {"conditions": "MHC I stabilization on RMA-S.L^d cells, representative of 3 assays"}, "[5]": {"conditions": "uninfected B10.D2 mice, tetramer enrichment"}},
  "note": "Where “and” joins values, the source holds several entries; their conditions need not be identical. Identical values can stand only once.",
  "data": [
    {"sequence": "HPGSVNEFDF [HF10, decamer peptide derived from type II GRA6 C-terminus, presented by L^d MHC I]", "values": [
      {"measurement": "Affinity for L^d relative to SM9 (in words)", "setting": "L^d MHC I molecule; [4]", "result": "fell in the same range as the T. gondii subdominant peptide SM9"},
      {"measurement": "Affinity for L^d, fold higher than that of IF9, QL9 and YL9", "setting": "L^d MHC I molecule; [4]", "result": "~10", "unit": "fold"},
      {"measurement": "Peptide concentration stabilizing L^d surface expression, fold lower compared to HY10", "setting": "L^d MHC I molecule; RMA-S.L^d cells pulsed with serial peptide dilutions, 1 h RT and 3 h 37°C, 30-5-7 antibody, representative of 2 assays", "result": 1000, "unit": "fold"},
      {"measurement": "Frequency of peptide-specific CD8 T cells in the spleen (peptide-loaded L^d dimers)", "setting": "[1]", "result": 9.5, "unit": "%+/−3.7"},
      {"measurement": "Number of tetramer+ cells / mouse (naïve peptide-specific CD8α+ T cells)", "setting": "[2]; spleen and lymph nodes of uninfected B10.D2 mice, peptide:L^d tetramer enrichment, mean, pooled from 3 independent experiments", "result": 400, "unit": "cells / mouse"},
      {"measurement": "Frequency of naïve HF10-specific CD8 T cells, fold lower than IF9-specific", "setting": "[2]; [5]", "result": "~3", "unit": "fold"},
      {"measurement": "Frequency of naïve HF10-specific CD8 T cells, fold lower than SM9-specific", "setting": "[2]; [5]", "result": "around 10 fold"},
      {"measurement": "Percentage of IFN-γ+ out of CD8+ cells after peptide restimulation", "setting": "[3]", "result": "24.7% and ~25%"},
      {"measurement": "Protection against lethal parasite challenge (in words)", "setting": "type II parasite", "result": "protects against lethal type II parasite challenge"}
    ]}
  ]
}
